Assay results: PubChem BioAssay (NCI)
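1) Cells in 96-well plates. 2) Compound, 48 h, 5 concentrations. 3) Linear interpolation between surrounding doses. 4) Unreached endpoint = highest concentration. Here, GI50 denotes the concentration required for 50% inhibition of growth. TGI: concentration producing complete growth inhibition.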

Key:
Assay in all cases: NCI-60 cell line screen, 48 h
KM12 colon = test system: KM12 colon
HS 578T breast = test system: HS 578T breast
SF-539 CNS = test system: SF-539 CNS
OVCAR-5 ovarian = test system: OVCAR-5 ovarian
COLO 205 colon = test system: COLO 205 colon
A498 renal = test system: A498 renal
NCI/ADR-RES ovarian = test system: NCI/ADR-RES ovarian
HL-60(TB) leukemia = test system: HL-60(TB) leukemia
TK-10 renal = test system: TK-10 renal
MDA-MB-435 = test system: MDA-MB-435
EKVX NSCLC = test system: EKVX NSCLC
SR leukemia = test system: SR leukemia
UACC-257 melanoma = test system: UACC-257 melanoma
ACHN renal = test system: ACHN renal
A549 NSCLC = test system: A549 NSCLC
K-562 leukemia = test system: K-562 leukemia
M14 melanoma = test system: M14 melanoma
SK-MEL-28 melanoma = test system: SK-MEL-28 melanoma
MDA-MB-468 breast = test system: MDA-MB-468 breast
SK-MEL-5 melanoma = test system: SK-MEL-5 melanoma
T-47D breast = test system: T-47D breast
OVCAR-8 ovarian = test system: OVCAR-8 ovarian
RXF 393 renal = test system: RXF 393 renal
BT-549 breast = test system: BT-549 breast
SK-MEL-2 melanoma = test system: SK-MEL-2 melanoma
IGROV1 ovarian = test system: IGROV1 ovarian
SF-295 CNS = test system: SF-295 CNS
SW-620 colon = test system: SW-620 colon
MDA-MB-231 breast = test system: MDA-MB-231 breast
UO-31 renal = test system: UO-31 renal
HT29 colon = test system: HT29 colon
SN12C renal = test system: SN12C renal
NCI-H226 lung = test system: NCI-H226 lung
786-0 renal = test system: 786-0 renal
OVCAR-4 ovarian = test system: OVCAR-4 ovarian
SNB-75 CNS = test system: SNB-75 CNS
HCC-2998 colon = test system: HCC-2998 colon
MALME-3M melanoma = test system: MALME-3M melanoma
SK-OV-3 ovarian = test system: SK-OV-3 ovarian
SNB-19 CNS = test system: SNB-19 CNS
MOLT-4 leukemia = test system: MOLT-4 leukemia
HCT-116 colon = test system: HCT-116 colon
HOP-62 NSCLC = test system: HOP-62 NSCLC
UACC-62 melanoma = test system: UACC-62 melanoma
HOP-92 NSCLC = test system: HOP-92 NSCLC
U251 CNS = test system: U251 CNS
CAKI-1 renal = test system: CAKI-1 renal
DU-145 prostate = test system: DU-145 prostate
LOX IMVI melanoma = test system: LOX IMVI melanoma
RPMI-8226 leukemia = test system: RPMI-8226 leukemia
CCRF-CEM leukemia = test system: CCRF-CEM leukemia
NCI-H23 lung = test system: NCI-H23 lung
SF-268 CNS = test system: SF-268 CNS
MCF7 breast = test system: MCF7 breast
NCI-H522 lung = test system: NCI-H522 lung
OVCAR-3 ovarian = test system: OVCAR-3 ovarian
PC-3 prostate = test system: PC-3 prostate
HCT-15 colon = test system: HCT-15 colon
NCI-H460 lung = test system: NCI-H460 lung

Cc1ccc2c(c1)/C(=C/C(=O)c1cc3ccccc3oc1=O)C(=O)N2
GI50 (KM12 colon): > 100 µM
TGI (KM12 colon): > 100 µM
GI50 (HS 578T breast): 19.4 µM
TGI (HS 578T breast): 84.6 µM
GI50 (SF-539 CNS): 16.2 µM
TGI (SF-539 CNS): 29.7 µM
GI50 (OVCAR-5 ovarian): 16.7 µM
TGI (OVCAR-5 ovarian): 30.3 µM
GI50 (COLO 205 colon): 17.2 µM
TGI (COLO 205 colon): 32.4 µM
GI50 (A498 renal): > 100 µM
TGI (A498 renal): > 100 µM
GI50 (NCI/ADR-RES ovarian): 17.3 µM
TGI (NCI/ADR-RES ovarian): 34.4 µM
GI50 (HL-60(TB) leukemia): 4.32 µM
TGI (HL-60(TB) leukemia): 23.1 µM
GI50 (TK-10 renal): 20 µM
TGI (TK-10 renal): 34.7 µM
GI50 (MDA-MB-435): 17.6 µM
TGI (MDA-MB-435): 33 µM
GI50 (EKVX NSCLC): 16.2 µM
TGI (EKVX NSCLC): 29.9 µM
GI50 (SR leukemia): 7.24 µM
TGI (SR leukemia): 74.7 µM
GI50 (UACC-257 melanoma): 15.7 µM
TGI (UACC-257 melanoma): 29.6 µM
GI50 (ACHN renal): 9.6 µM
TGI (ACHN renal): 21.3 µM
GI50 (A549 NSCLC): 34.5 µM
TGI (A549 NSCLC): > 100 µM
GI50 (K-562 leukemia): 3.91 µM
TGI (K-562 leukemia): 48.7 µM
GI50 (M14 melanoma): 15.9 µM
TGI (M14 melanoma): 29.8 µM
GI50 (SK-MEL-28 melanoma): 17 µM
TGI (SK-MEL-28 melanoma): 30.6 µM
GI50 (MDA-MB-468 breast): 10.5 µM
TGI (MDA-MB-468 breast): 23.9 µM
GI50 (SK-MEL-5 melanoma): 24.9 µM
TGI (SK-MEL-5 melanoma): 80.2 µM
GI50 (T-47D breast): 13 µM
TGI (T-47D breast): 34.5 µM
GI50 (OVCAR-8 ovarian): 17.9 µM
TGI (OVCAR-8 ovarian): 34 µM
GI50 (RXF 393 renal): 15.8 µM
TGI (RXF 393 renal): 29.3 µM
GI50 (BT-549 breast): 17.6 µM
TGI (BT-549 breast): 33.7 µM
GI50 (SK-MEL-2 melanoma): 21.1 µM
TGI (SK-MEL-2 melanoma): 54.7 µM
GI50 (IGROV1 ovarian): 16.2 µM
TGI (IGROV1 ovarian): 29.9 µM
GI50 (SF-295 CNS): > 100 µM
TGI (SF-295 CNS): > 100 µM
GI50 (SW-620 colon): 14.7 µM
TGI (SW-620 colon): 30.4 µM
GI50 (MDA-MB-231 breast): 15 µM
TGI (MDA-MB-231 breast): 28.2 µM
GI50 (UO-31 renal): 11.3 µM
TGI (UO-31 renal): 23.4 µM
GI50 (HT29 colon): 20.6 µM
TGI (HT29 colon): 40.5 µM
GI50 (SN12C renal): 16.9 µM
TGI (SN12C renal): 31.9 µM
GI50 (NCI-H226 lung): 18.6 µM
TGI (NCI-H226 lung): 46.8 µM
GI50 (786-0 renal): 18.5 µM
TGI (786-0 renal): 32.4 µM
GI50 (OVCAR-4 ovarian): 17.4 µM
TGI (OVCAR-4 ovarian): 33.3 µM
GI50 (SNB-75 CNS): 82.1 µM
TGI (SNB-75 CNS): > 100 µM
GI50 (HCC-2998 colon): 17.7 µM
TGI (HCC-2998 colon): 32.8 µM
GI50 (MALME-3M melanoma): 10.6 µM
TGI (MALME-3M melanoma): 22.5 µM
GI50 (SK-OV-3 ovarian): > 100 µM
TGI (SK-OV-3 ovarian): > 100 µM
GI50 (SNB-19 CNS): > 100 µM
TGI (SNB-19 CNS): > 100 µM
GI50 (MOLT-4 leukemia): 8.56 µM
TGI (MOLT-4 leukemia): 43.2 µM
GI50 (HCT-116 colon): 4.45 µM
TGI (HCT-116 colon): 16.8 µM
GI50 (HOP-62 NSCLC): > 100 µM
TGI (HOP-62 NSCLC): > 100 µM
GI50 (UACC-62 melanoma): 15.5 µM
TGI (UACC-62 melanoma): 33 µM
GI50 (HOP-92 NSCLC): 14.5 µM
TGI (HOP-92 NSCLC): 28.4 µM
GI50 (U251 CNS): 29.2 µM
TGI (U251 CNS): > 100 µM
GI50 (CAKI-1 renal): 12.2 µM
TGI (CAKI-1 renal): 25.3 µM
GI50 (DU-145 prostate): 17.9 µM
TGI (DU-145 prostate): 32.4 µM
GI50 (LOX IMVI melanoma): 14.7 µM
TGI (LOX IMVI melanoma): 27.9 µM
GI50 (RPMI-8226 leukemia): 22.1 µM
TGI (RPMI-8226 leukemia): 63.9 µM
GI50 (CCRF-CEM leukemia): 6.91 µM
TGI (CCRF-CEM leukemia): 56.5 µM
GI50 (NCI-H23 lung): 16.4 µM
TGI (NCI-H23 lung): 32.8 µM
GI50 (SF-268 CNS): 68.3 µM
TGI (SF-268 CNS): > 100 µM
GI50 (MCF7 breast): 16.4 µM
TGI (MCF7 breast): 34 µM
GI50 (NCI-H522 lung): 3.26 µM
TGI (NCI-H522 lung): 11.5 µM
GI50 (OVCAR-3 ovarian): 14.1 µM
TGI (OVCAR-3 ovarian): 27.3 µM
GI50 (PC-3 prostate): 16.1 µM
TGI (PC-3 prostate): 36 µM
GI50 (HCT-15 colon): 16.7 µM
TGI (HCT-15 colon): 32.8 µM
GI50 (NCI-H460 lung): > 100 µM
TGI (NCI-H460 lung): > 100 µM
